Reference: US20160339022A1, “TREATMENT OF NEUROBLASTOMA WITH HISTONE DEACETYLASE INHIBITORS” (Acetylon Pharmaceuticals Inc., priority 2015, published 2016)

Assays:
Format in all cases: cell-based
neuroblastoma cells [1] = test: Neuroblastoma proliferation, manual cell counts over 7 days; details: 1 μM and 3 μM, counted at days 3, 5 and 7
Protocol: Cells were cultured over a 7 day period and manually counted at days 3, 5, and 7.

SK-N-BE2 cells = test: Levels of proteins related to cell-cycle progression; details: 3 days in culture
Protocol: The levels of proteins related to cell-cycle progression were assessed following treatment (SK-N-BE2 cells; 3 days in culture) with DMSO (control), Compound B alone, ATRA alone, and Compound B in combination with ATRA. p21 is increased by ATRA and enhanced by Compound B. Cyclin D1 is decreased in the combination setting relative to ATRA as a single agent. CDK2 and CDK4 are decreased in the combination setting with Compound B and ATRA.

[2] = test system: retinoic acid receptor (RAR); test: Retinoic acid receptor ChIP-seq; details: 3 μM Compound B, 48 hours
Description: Retinoic acid receptor active binding sites defined in any individual treatment group by ChIP-seq at 48 hrs after treatment were stacked (y-axis) and aligned to the center of the binding peak (x-axis) (FIG. 13). […] Many of the genes found near region 1 binding sites are involved in regulation of retinoid signaling and are transcription factors that drive differentiation (Table 10).
Regions 1-7 of FIG. 13 are defined relative to DMSO: 1, [Combo] Increased; 2, [ATRA] Increased; 3, [ATRA] [Combo] Increased; 4, [Combo] [ATRA] [Compound B] Increased; 5, [Combo] [ATRA] Decreased; 6, [Compound B] Decreased; and 7, [Compound B] [Combo] [ATRA] Decreased.
Neuroblastoma cell line SK-N-BE(2) cells were treated with 3 μM Compound B, 1 μM ATRA, or a combination of both at 37° C. over 48 hours and compared to the solvent (DMSO) control. Antibodies to pan-retinoic acid receptor were used to pull down DNA associated with the receptor binding and sequenced. Lists of binding regions were mapped to the chromosome and “associated” with a given gene if the binding region was located within 10,000 bp up- or down-stream of the gene in question. Binding regions were represented as a heatmap where the sites were stacked on the y-axis across treatments, the “0” mark on the x-axis is the center of the binding peak and the intensity of signal indicated by color. The bracketed regions are areas of statistical significance relative to the DMSO control as indicated on the plot.
Table 12 lists the genes returned when the following conditions are met: 1) combo peak height >4 fold relative to the DMSO control group, and 2) combo expression >4 fold relative to the DMSO control group.

neuroblastoma cells [3] = test: Morphology changes / dendrite outgrowth by inverted microscope; details: 3, 5 and 7 days
Protocol: Cells were cultured for 3, 5, and 7 days with the indicated treatments. Images were captured on an inverted microscope.

p21 = test: Expression of cell cycle regulator p21; details: single agent, FIG. 6A
neuroblastoma cells [4] = test: Histone acetylation in neuroblastoma cells by western blot; details: western blot at 24 hours
neuroblastoma cells [5] = test: Cell cycle analysis (Click-iT EdU and FxCycle PI/RNase staining); details: 7 days, with ATRA
Protocol: Cells were cultured for 7 days with the indicated treatments and then stained with the Invitrogen Click-iT EdU kit and the Invitrogen FxCycle […] kits to assess frequency of cells in each stage of the cell cycle. […] The effect is enhanced by Compound B in a dose dependent manner.
In combination with ATRA, the effect on p21 is enhanced at concentrations that induce gene expression changes consistent with differentiation. At 7 days of treatment, combination effects are observed on the cell cycle, with a decreasing frequency of s-phase cells and an increasing sub-G1 population (FIG. 6B). […] EDU is increased in cells in s-phase while PI intensity indicates relative levels of DNA. Using these metrics, we illustrate the frequency of cells in the indicated states of the cell cycle.

SK-N-BE(2) cells = test: Differentiation Index Score based on a gene signature; details: 48 hours, FIG. 1
Protocol: A subset of the fingerprint genes are assessed for each treatment group, and a score is assigned to each gene based on the degree of expression and weighted with a (+) or (−) sign based on if it increased or decreased as predicted. The scores are summed to generate a single Index value for each treatment group, set to ATRA signal and compared. It is observed that HDAC1/2i induce gene expression consistent with differentiation and that in combination with ATRA, the differentiation effect is enhanced.
The combination of the listed compounds with retinoic acid results in a greater differentation index score, illustrating enhanced differentiation in the combination setting.

[6] = SK-N-BE(2) cells, 1 μM ATRA or combination, fold relative to the DMSO control group

SMILES: Nc1ccc(-c2cccs2)cc1NC(=O)c1ccc2c(c1)cc(C1CC1)n2CCN1CCOCC1 [Compound B, N-(2-amino-5-(thiophen-2-yl)phenyl)-2-cyclopropyl-1-(2-morpholinoethyl)-1H-indole-5-carboxamide]
- proliferation, single agent (neuroblastoma cells [1]): can suppress proliferation similar to ATRA
- p21 level (SK-N-BE2 cells): enhanced
- RAR Binding (Peak Height), ACSL3 [2, 6]: 2.00
- RAR Binding (Peak Height), ATP7A [2, 6]: 2.20
- RAR Binding (Peak Height), CDKN1A [2, 6]: 0.50
- RAR Binding (Peak Height), CRABP2 [2, 6]: 0.69
- RAR Binding (Peak Height), CTSH [2, 6]: 0.83
- RAR Binding (Peak Height), CYP26A1 [2, 6]: 2.33
- RAR Binding (Peak Height), CYP26B1 [2, 6]: 1.50
- RAR Binding (Peak Height), DHRS3 [2, 6]: 1.00
- RAR Binding (Peak Height), DUSP6 [2, 6]: 3.00
- RAR Binding (Peak Height), ETS1 [2, 6]: 3.35
- RAR Binding (Peak Height), HSPA5 [2, 6]: 2.00
- RAR Binding (Peak Height), IER3 [2, 6]: 2.67
- RAR Binding (Peak Height), NFKBIZ [2, 6]: 3.33
- RAR Binding (Peak Height), PCDH18 [2, 6]: 4.00
- RAR Binding (Peak Height), PTGER2 [2, 6]: 0.75
- RAR Binding (Peak Height), RARB [2, 6]: 1.10
- RAR Binding (Peak Height), RET [2, 6]: 1.71
- RAR binding to chromatin ([2]; SK-N-BE(2), 1 μM ATRA, vs DMSO): can reduce RAR binding
- morphology / dendrite outgrowth (neuroblastoma cells [3]): does not alter morphology
- expression of master cell cycle regulator p21 (p21): increased expression
- histone acetylation (neuroblastoma cells [4]): induces histone acetylation
- effect on ATRA-mediated s-phase reduction and sub-G1 increase (neuroblastoma cells [5]): enhanced
- Differentiation Index Score (gene signature) (SK-N-BE(2) cells): induces gene expression changes consistent with differentiation
